Key:
NCI-H929 xenograft tumor = experiment: Pharmacodynamic test: NCI-H929 xenograft tumor in CB-17 SCID mice; type: in vivo
Method: This experiment was performed to evaluate the inhibition effect of the compound of Example 6 and the control example CC-92480 on the growth of human multiple myeloma cell NCI-H929 xenograft tumor in CB-17 SCID mice.
Compound of Example 6; control example CC-92480 (see compound 2 of WO2019014100A1, synthesized according to the method disclosed therein)
Solutions of the compound of Example 6 and the control example CC-92480 were prepared with 5% DMSO+20% PEG400+70% (10% TPGS)+5% (1% HPMC K100LV).
Thirty CB-17 SCID female mice, purchased from Beijing Vital River Laboratory Animal Technology Co., Ltd. (certificate No. 20170011006049, SCXK (Shanghai) 2017-0011), weighing about 19 g at the time of purchase, were bred at 5 mice/cage (in 12/12 hour light/dark cycle, at a constant temperature of 23±1° C. and humidity of 50%-60%) and had free access to food and water.
After adaptive feeding, the CB-17 SCID mice were grouped as follows:
NCI-H929 cells in a logarithmic growth phase were inoculated subcutaneously into the right flank of 30 female CB-17 SCID mice at 5×10^6 cells/mouse/100 μL (containing 50 μL of Matrigel). After 10 days, when the tumor volume of the tumor-bearing mice reached about 200 mm^3, the mice were randomly divided into 3 groups according to the tumor volume and body weight: vehicle control group, CC-92480-1 mpk, compound of Example 6-1 mpk, with 7 mice in each group. The day of grouping was set as Day 0 (D0), and intragastric administration was performed once a day for 11 days (Table 2). For the tumor-bearing mice, the tumor volume was measured with a vernier caliper and the body weight was measured with a balance twice a week, and the data were recorded.
All data were plotted and statistically analyzed using Excel and GraphPad Prism 5 software.
The tumor volume (V) was calculated as follows: V=½×a×b^2, where a and b represent length and width, respectively.
The relative tumor proliferation rate T/C (%)=(T−T0)/(C−C0)×100(%), where T and C are the tumor volume of animals at the end of the experiment in the treatment group and control group, respectively; T0 and C0 are the tumor volume of animals at the beginning of the experiment in the treatment group and control group, respectively.
Tumor growth inhibition TGI (%)=1−T/C (%), and when TGI (%) exceeds 100%, no specific value will be shown, and it is expressed only by >100%.
Tumor regression (%)=[(T0−T)/T0]×100(%).

[1] = Plasma stability in monkey plasma (LC-MS/MS); type: in vitro ADME; conditions: monkey, plasma
Method: The stability of the compound of Example 6 and the control example CC-92480 after incubation in cryopreserved monkey plasma at 37° C. for 0 min, 15 min, 30 min, 60 min, 120 min, 180 min and 240 min was determined quantitatively by LC-MS/MS.
(§1) Compound of Example 6 and control example CC-92480.
Monkey plasma was purchased from Shanghai Medicilon Inc.
A certain amount of the compound of Example 6 was weighed and prepared with DMSO to obtain a 30 mM stock solution. A certain volume of the stock solution was diluted into a solution I at a concentration of 1600 μM with DMSO; and a certain volume of the solution I at 1600 μM was diluted with 50% methanol to obtain a working solution II at a concentration of 16 μM. A 30 mM stock solution, a 1600 μM solution I′, and a 16 μM working solution II′ of CC-92480 were prepared as described above.
5 μL of the working solutions at 16 μM of the compound of Example 6 and the control example CC-92480 were each added to 75 μL of plasma to make the final concentration of the compounds of 1 μM. The samples were incubated under a 37° C. water bath for 0 min, 15 min, 30 min, 60 min, 90 min, 120 min, and 180 min. […] The supernatant was analyzed by LC-MS with a sample injection volume of 2 μL.

[2] = Pharmacokinetic evaluation in mice after intragastric administration (LC/MS/MS); type: in vivo; conditions: female, mouse, in vivo, po, 2 mg/kg
Method: The drug concentration in the plasma of the test animals (mice) at different time points after intragastric administration of the compound of Example 6 and the control example CC-92480 was determined by an LC/MS/MS method. The pharmacokinetic behavior of the compound of the present disclosure in mice was studied and its pharmacokinetic profile was evaluated.
as §1
Eighteen mice, female, purchased from Beijing Vital River Laboratory Animal Technology Co., Ltd., with animal production license number of SCXK (Shanghai) 2017-0005.
A certain amount of compound of Example 6 was weighed, dissolved by adding 5% by volume of DMSO and 5% Tween 80 (Shanghai Titan Scientific Co., Ltd.), and then prepared into a 0.1 mg/mL clear solution by adding 90% normal saline.
A certain amount of the control example CC-92480 was weighed, dissolved by adding 5% by volume of DMSO and 5% Tween 80 (Shanghai Titan Scientific Co., Ltd.), and then prepared into a 0.1 mg/mL clear solution by adding 90% normal saline.
Nine mice were intragastrically administered with the compound of Example 6 at a dose of 2 mg/kg and at a volume of 0.2 mL/10 g.
Nine mice were intragastrically administered with the control example CC-92480 at a dose of 2 mg/kg and at a volume of 0.2 mL/10 g.
Mice were intragastrically administered with the compound of Example 6 and the control example CC-92480, and 0.2 mL of blood was collected before the administration and 0.25 h, 0.5 h, 1.0 h, 2.0 h, 4.0 h, 6.0 h, 8.0 h, 11.0 h and 24.0 h after the administration (3 animals at each time point), placed in EDTA-K2 anticoagulation tubes, and centrifuged at 10,000 rpm for 1 min(4° C.). Plasma was separated within 1 h, and stored at −20° C. for testing. The process from blood collection to centrifugation was performed under an ice bath.
The content of the test compounds at different concentrations in mouse plasma after the administration was determined: 25 μL of mouse plasma at each time point after the administration was mixed with 50 μL (100 ng/mL) of internal standard solution camptothecin (National Institutes for Drug Control) and 175 μL of acetonitrile. The mixture was vortexed for 5 min and centrifuged for 10 min (3700 rpm/min), and 1 μL of the supernatant of the plasma sample was taken for LC/MS/MS assay (API4000 triple quadrupole tandem mass spectrometer, Applied Biosystems, USA; Shimadzu, LC-30AD ultra high performance liquid chromatography system, Shimadzu, Japan).

**Q.** Which “Mean tumor volume D0” value (NCI-H929 xenograft tumor; 1 mg/kg qd, baseline at day of grouping (D0), n=7) does the source give for N#Cc1ccc(N2CCN(Cc3ccc(COc4cccc5c4CN([C@H]4CCC(=O)NC4=O)C5=O)cc3)CC2)c(F)c1 [CC-92480, reference compound] here?
**A.** 157.2 mm^3

**Q.** What about the “Number of remaining animals/group” value (NCI-H929 xenograft tumor; 1 mg/kg qd/11d po) of the same compound?
**A.** 7/7

**Q.** What about the “% tumor regression D11” value (NCI-H929 xenograft tumor; 1 mg/kg qd/11d po (i.g.), D11) of the same compound?
**A.** 34%

**Q.** What about the “Mean tumor volume D11” value (NCI-H929 xenograft tumor; 1 mg/kg qd/11d po (i.g.), D11, n=7) of the same compound?
**A.** 103.6 mm^3

**Q.** What about the half-life at 1 µM [1] of the same compound?
**A.** 3.32 h

**Q.** And the AUC [2]?
**A.** 1940 ng·h/mL

**Q.** What about the CL/F [2] of the same compound?
**A.** 17.2 mL/min/kg

**Q.** What about the Cmax [2] of the same compound?
**A.** 692 ng/mL

**Q.** What about the MRT [2] of the same compound?
**A.** 2.3 h

**Q.** What about the Vd/F [2] of the same compound?
**A.** 1.96 L/kg

**Q.** And the half-life [2]?
**A.** 1.3 h

Source: US20230257366A1, “SULFUR-CONTAINING ISOINDOLINE DERIVATIVE, AND PREPARATION METHOD THEREFOR AND MEDICAL USE THEREOF” (JIANGSU HENGRUI PHARMACEUTICALS CO., LTD., priority 2020, published 2023)
